This passage reports IC50 and Ratio results from ChEMBL document CHEMBL1151030, “Synthesis of tetrazol-1-yl analogs of HMG-COA reductase inhibitor BMS180431 (formerly BMY21950)” (Bioorg Med Chem Lett, 1992).

For assay [1], the target named is T1, 3-hydroxy-3-methylglutaryl-coenzyme A reductase (Homo sapiens, UniProt P04035).
T1 sequence (P04035 whole entry): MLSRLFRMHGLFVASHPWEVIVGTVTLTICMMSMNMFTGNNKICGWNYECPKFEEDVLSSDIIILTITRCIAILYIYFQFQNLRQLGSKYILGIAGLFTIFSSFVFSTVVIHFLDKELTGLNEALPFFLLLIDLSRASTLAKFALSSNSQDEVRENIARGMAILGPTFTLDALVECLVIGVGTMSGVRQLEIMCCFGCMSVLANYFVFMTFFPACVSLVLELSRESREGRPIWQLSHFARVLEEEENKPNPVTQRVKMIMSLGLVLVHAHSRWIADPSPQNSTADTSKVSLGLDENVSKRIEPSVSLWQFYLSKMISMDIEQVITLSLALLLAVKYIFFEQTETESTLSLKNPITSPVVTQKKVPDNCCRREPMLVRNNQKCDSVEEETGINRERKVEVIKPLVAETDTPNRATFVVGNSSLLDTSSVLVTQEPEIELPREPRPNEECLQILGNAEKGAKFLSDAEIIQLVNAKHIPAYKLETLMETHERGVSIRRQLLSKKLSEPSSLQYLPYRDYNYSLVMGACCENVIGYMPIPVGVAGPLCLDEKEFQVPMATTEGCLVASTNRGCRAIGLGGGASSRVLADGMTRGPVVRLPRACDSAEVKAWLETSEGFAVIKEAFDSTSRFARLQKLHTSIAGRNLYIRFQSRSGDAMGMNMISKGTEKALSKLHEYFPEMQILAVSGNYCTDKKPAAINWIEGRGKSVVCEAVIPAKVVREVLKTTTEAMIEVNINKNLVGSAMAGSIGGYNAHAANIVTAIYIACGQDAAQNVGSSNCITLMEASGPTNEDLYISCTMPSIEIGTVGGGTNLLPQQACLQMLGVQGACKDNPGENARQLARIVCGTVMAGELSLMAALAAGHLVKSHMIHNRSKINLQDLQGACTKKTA
In words: Compound was evaluated for inhibitory activity against HMG-CoA reductase in HepG2 cells. It is filed as cell-based.

Assay [2] has as its target T2, 3-hydroxy-3-methylglutaryl-coenzyme A reductase (Rattus norvegicus, UniProt P51639).
T2 sequence (P51639 whole entry): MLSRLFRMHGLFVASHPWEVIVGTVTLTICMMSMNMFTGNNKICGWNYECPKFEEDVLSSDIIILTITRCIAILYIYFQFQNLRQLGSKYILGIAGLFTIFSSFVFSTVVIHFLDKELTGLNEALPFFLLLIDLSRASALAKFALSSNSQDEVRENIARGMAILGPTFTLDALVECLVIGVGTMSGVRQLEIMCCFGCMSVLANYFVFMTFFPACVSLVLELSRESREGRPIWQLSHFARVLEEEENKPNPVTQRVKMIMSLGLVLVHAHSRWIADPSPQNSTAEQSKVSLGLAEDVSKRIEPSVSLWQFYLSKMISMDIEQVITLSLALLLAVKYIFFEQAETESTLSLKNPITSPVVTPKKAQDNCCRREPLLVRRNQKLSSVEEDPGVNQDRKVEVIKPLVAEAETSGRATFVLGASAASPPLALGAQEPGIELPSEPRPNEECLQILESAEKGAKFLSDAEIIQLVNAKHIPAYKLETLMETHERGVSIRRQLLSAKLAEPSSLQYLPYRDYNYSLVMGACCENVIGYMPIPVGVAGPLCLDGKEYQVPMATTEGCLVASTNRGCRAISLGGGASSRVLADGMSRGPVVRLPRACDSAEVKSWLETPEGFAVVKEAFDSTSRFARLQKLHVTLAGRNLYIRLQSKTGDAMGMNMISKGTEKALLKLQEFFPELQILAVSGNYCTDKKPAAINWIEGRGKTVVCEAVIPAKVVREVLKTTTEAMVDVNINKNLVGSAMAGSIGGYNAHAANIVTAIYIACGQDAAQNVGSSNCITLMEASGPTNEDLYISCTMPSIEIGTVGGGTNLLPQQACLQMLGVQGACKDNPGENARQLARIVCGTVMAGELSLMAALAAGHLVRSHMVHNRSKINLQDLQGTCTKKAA
In words: Compound was evaluated for inhibitory activity against HMG-CoA reductase in spleen cell preparation. The class given is tissue-based.

A further assay concerns HepG2. In words: Ratio of inhibitory activity against HMG-CoA reductase of HepG2 cells vs hepatocytes. It is filed as cell-based.
The target in assay [3] is T1, 3-hydroxy-3-methylglutaryl-coenzyme A reductase. In words: Compound was evaluated for inhibitory activity against HMG-CoA reductase in adrenal cell preparation. The class given is cell-based.
Assay [4] deals with T3, 3-hydroxy-3-methylglutaryl-coenzyme A reductase (Mus musculus, UniProt Q01237).
T3 sequence (Q01237 whole entry): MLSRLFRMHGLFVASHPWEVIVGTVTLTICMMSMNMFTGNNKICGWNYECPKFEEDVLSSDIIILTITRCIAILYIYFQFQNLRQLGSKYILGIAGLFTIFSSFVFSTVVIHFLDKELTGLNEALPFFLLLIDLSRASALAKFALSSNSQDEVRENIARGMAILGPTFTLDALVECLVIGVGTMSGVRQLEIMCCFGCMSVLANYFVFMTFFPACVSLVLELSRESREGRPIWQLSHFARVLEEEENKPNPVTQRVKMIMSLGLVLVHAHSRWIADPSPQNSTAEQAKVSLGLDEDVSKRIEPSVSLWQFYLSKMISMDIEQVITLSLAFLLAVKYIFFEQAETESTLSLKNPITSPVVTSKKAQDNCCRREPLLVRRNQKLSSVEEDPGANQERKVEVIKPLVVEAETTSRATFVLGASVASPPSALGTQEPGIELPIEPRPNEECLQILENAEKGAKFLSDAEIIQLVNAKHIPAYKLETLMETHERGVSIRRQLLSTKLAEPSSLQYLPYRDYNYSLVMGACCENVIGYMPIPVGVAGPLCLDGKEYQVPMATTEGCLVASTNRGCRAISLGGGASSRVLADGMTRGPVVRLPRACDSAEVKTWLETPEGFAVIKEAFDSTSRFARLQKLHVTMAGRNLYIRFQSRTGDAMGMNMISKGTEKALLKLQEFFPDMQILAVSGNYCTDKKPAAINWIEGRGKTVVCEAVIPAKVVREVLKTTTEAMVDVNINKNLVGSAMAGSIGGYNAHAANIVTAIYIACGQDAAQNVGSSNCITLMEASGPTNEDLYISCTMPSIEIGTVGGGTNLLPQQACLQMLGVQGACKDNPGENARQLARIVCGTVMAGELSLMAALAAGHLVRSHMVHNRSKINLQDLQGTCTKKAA
In words: In vitro inhibitory activity against isolated enzyme HMG-CoA reductase.

Assay [5] concerns the target T2, 3-hydroxy-3-methylglutaryl-coenzyme A reductase. In words: Compound was evaluated for inhibitory activity against HMG-CoA reductase in testes cell preparation. The class given is tissue-based, Testis.
The target is the same in assay [6]. In words: Compound was evaluated for inhibitory activity against HMG-CoA reductase from rat hepatocyte. The class given is cell-based.
For the next assay, the system named is Hepatocyte. In words: Ratio of inhibitory activity of HepG2 to hepatocyte. It is filed as cell-based.

As for `Cn1nnnc1C(/C=C/[C@@H](O)C[C@@H](O)CC(=O)O)=C(c1ccc(F)cc1)c1ccc(F)cc1`, the concentration for half-maximal inhibition (IC50) (commonly the midpoint of a concentration-inhibition curve) in assay [1] stood at 1340 nM; in assay [2], 3200 nM; in assay [3], 1600 nM; in assay [4], 43 nM; in assay [5] it was 1800 nM. For the same molecule, in the assay on HepG2, the Ratio came out at 62.
Turning to `O=C(O)C[C@H](O)C[C@H](O)/C=C/C(=C(c1ccc(F)cc1)c1ccc(F)cc1)n1cnnn1`, the IC50 in assay [1] was 1720 nM; in assay [4], 120 nM; in assay [6], 20 nM. For the same molecule, the Ratio in the assay with HepG2 is 86.
Molecule `CC[C@H](C)C(=O)O[C@H]1C[C@@H](C)C=C2C=C[C@H](C)[C@H](CC[C@@H]3C[C@@H](O)CC(=O)O3)[C@H]21` [LOVASTATIN] gave a 50% inhibitory concentration (IC50) in assay [4] of 27 nM.
With `Cc1nnnn1C(/C=C/[C@@H](O)C[C@@H](O)CC(=O)O)=C(c1ccc(F)cc1)c1ccc(F)cc1`, the figures for the IC50 in assay [1], in assay [4] and in assay [6] were 1290 nM, 630 nM and 100 nM, respectively. For the same molecule, the Ratio with Hepatocyte stood at 13.
Take `O=C(O)C[C@H](O)C[C@H](O)/C=C/C(=C(c1ccc(F)cc1)c1ccc(F)cc1)n1nnnc1-c1ccccc1`: in assay [4], the IC50 was more than 100000 nM.
